Consider 19 molecules from US9273058B2 (BRISTOL-MYERS SQUIBB COMPANY, priority 2013, dated 2016).

Like-named read-outs stand apart in the source and are kept apart here.

One assay deals with CK1δ (Homo sapiens, UniProt P48730). Put plainly: CK1δ kinase assay (Caliper LabChip electrophoretic separation of fluoresceinated peptide substrate and product). In kind it is biochemical. Particulars: 200 pM CK1δ, 50 μM ATP, 1.5 μM peptide, 22 hours at room temperature. The procedure, abridged:
(§1)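 IC50 values were obtained by non-linear regression from eleven-concentration titrations. The kinase reactions were incubated for 22 hours at room temperature before termination with 35 mM EDTA.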

A further assay has as its target CK1ε (Homo sapiens, UniProt P49674). Description: CK1ε kinase assay (Caliper LabChip electrophoretic separation of fluoresceinated peptide substrate and product). In kind it is biochemical. Particulars: 200 pM CK1ε, 50 μM ATP, 1.5 μM peptide, 22 hours at room temperature. The procedure, abridged:
as §1

Sequence of CK1ε (P49674 whole entry): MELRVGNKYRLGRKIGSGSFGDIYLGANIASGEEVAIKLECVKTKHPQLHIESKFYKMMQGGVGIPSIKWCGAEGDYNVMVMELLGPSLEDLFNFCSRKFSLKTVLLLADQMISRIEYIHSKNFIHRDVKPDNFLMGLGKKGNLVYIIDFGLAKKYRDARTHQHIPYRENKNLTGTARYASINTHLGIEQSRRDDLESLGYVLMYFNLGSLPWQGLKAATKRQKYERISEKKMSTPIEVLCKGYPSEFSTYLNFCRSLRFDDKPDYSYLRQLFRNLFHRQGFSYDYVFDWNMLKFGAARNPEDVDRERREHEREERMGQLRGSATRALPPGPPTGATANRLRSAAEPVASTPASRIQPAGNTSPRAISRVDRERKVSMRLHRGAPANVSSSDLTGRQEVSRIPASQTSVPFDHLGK
Sequence of CK1δ (P48730 whole entry): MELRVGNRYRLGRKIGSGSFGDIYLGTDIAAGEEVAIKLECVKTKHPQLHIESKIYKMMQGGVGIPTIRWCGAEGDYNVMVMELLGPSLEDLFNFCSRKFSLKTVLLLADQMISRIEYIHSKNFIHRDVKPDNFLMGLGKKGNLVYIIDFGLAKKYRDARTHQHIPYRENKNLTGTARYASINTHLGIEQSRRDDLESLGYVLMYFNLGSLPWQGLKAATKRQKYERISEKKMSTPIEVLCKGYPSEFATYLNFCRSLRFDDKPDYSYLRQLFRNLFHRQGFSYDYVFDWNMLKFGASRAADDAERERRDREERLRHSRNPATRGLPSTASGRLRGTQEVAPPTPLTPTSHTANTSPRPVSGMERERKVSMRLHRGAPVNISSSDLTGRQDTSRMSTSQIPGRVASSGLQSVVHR

`N#Cc1ccc(C23CCC(NC(=O)N4CCn5nc(-c6ccc(F)c(Cl)c6)c(C(N)=O)c5C4)(CC2)CC3)cc1` [Compound A51, 2-(3-Chloro-4-fluorophenyl)-N^5-(4-(4-cyanophenyl)bicyclo[2.2.2]octan-1-yl)-6,7-dihydropyrazolo[1,5-a]pyrazine-3,5(4H)-dicarboxamide]: the IC50 at CK1δ (read-out: CK1δ IC50 range) and on CK1ε (read-out: CK1ε IC50 range) was 0.01 to 10 nM throughout.
With `NC(=O)c1c(-c2cccc(F)c2)nn2c1CN(C(=O)Nc1ccc(Cl)cc1C(F)(F)F)CC2` [Compound 57, N^5-(4-Chloro-2-(trifluoromethyl)phenyl)-2-(3-fluorophenyl)-6,7-dihydropyrazolo[1,5-a]pyrazine-3,5(4H)-dicarboxamide], the IC50 on CK1δ (read-out: CK1δ IC50 range) was in the range of 10 to 100 nM; on CK1ε (read-out: CK1ε IC50 range), 100 to 2000 nM.
As for `NC(=O)c1c(-c2ccc(F)c(Cl)c2)nn2c1CN(C(=O)N[C@H]1C[C@@H](F)C1)CC2` [Compound 190, 2-(3-Chloro-4-fluorophenyl)-N^5-((1s,3s)-3-fluorocyclobutyl)-6,7-dihydropyrazolo[1,5-a] pyrazine-3,5(4H)-dicarboxamide], the IC50 at CK1δ (read-out: CK1δ IC50 range) and at CK1ε (read-out: CK1ε IC50 range) was 0.01 to 10 nM in each case.
In the case of `N#CCC1(NC(=O)N2CCn3nc(-c4cccc(Cl)c4)c(C(N)=O)c3C2)CCC1` [Compound 221, 2-(3-Chlorophenyl)-N^5-(1-(cyanomethyl)cyclobutyl)-6,7-dihydropyrazolo[1,5-a] pyrazine-3,5(4H)-dicarboxamide], the IC50 at CK1δ (read-out: CK1δ IC50 range) and at CK1ε (read-out: CK1ε IC50 range) was 0.01 to 10 nM in each case.
`NC(=O)c1c(-c2ccc(F)c(Cl)c2)nn2c1CN(C(=O)NC1CCCC1)CC2C(F)F` (stereo not shown) [Compound A12, 2-(3-Chloro-4-fluorophenyl)-N^5-cyclopentyl-7-(difluoromethyl)-6,7-dihydropyrazolo[1,5-a]pyrazine-3,5(4H)-dicarboxamide]: the IC50 fell in the range of 10 to 100 nM at CK1δ (read-out: CK1δ IC50 range) and 0.01 to 10 nM at CK1ε (read-out: CK1ε IC50 range).
The corresponding values for `CC(C)(C)NC(=O)N1CCn2nc(-c3cccc(CNS(C)(=O)=O)c3)c(C(N)=O)c2C1` [Compound 135, N^5-(tert-Butyl)-2-(3-(methylsulfonamidomethyl)phenyl)-6,7-dihydropyrazolo [1,5-a]pyrazine-3,5(4H)-dicarboxamide] are 100 to 2000 nM and 100 to 2000 nM.
For `N#Cc1ccc(C23CCC(NC(=O)N4CCn5nc(-c6ccc(Cl)c(Cl)c6)c(C(N)=O)c5C4)(CC2)CC3)cc1` [Compound A90, N^5-(4-(4-Cyanophenyl)bicyclo[2.2.2]octan-1-yl)-2-(3,4-dichlorophenyl)-6,7-dihydropyrazolo[1,5-a]pyrazine-3,5(4H)-dicarboxamide], the IC50 at CK1δ (read-out: CK1δ IC50 range) and at CK1ε (read-out: CK1ε IC50 range) was 0.01 to 10 nM in each case.
With `CC(C)(C)NC(=O)N1CCn2nc(-c3cccc(C(N)=O)c3)c(C(N)=O)c2C1` [Compound 123, N^5-(tert-Butyl)-2-(3-carbamoylphenyl)-6,7-dihydropyrazolo[1,5-a] pyrazine-3,5(4H)-dicarboxamide], the IC50 at CK1δ (read-out: CK1δ IC50 range) lay in the range of 10 to 100 nM; on CK1ε (read-out: CK1ε IC50 range), 100 to 2000 nM.
The corresponding values for `NC(=O)c1c(-c2ccc(Cl)c(Cl)c2)nn2c1CN(C(=O)N[C@H]1C[C@@H](c3ccc(F)cc3)C1)CC2` [Compound 278, 2-(3,4-Dichlorophenyl)-N^5-((1s,3s)-3-(4-fluorophenyl)cyclobutyl)-6,7-dihydropyrazolo[1,5-a] pyrazine-3,5(4H)-dicarboxamide] are 0.01 to 10 nM and 0.01 to 10 nM.
The corresponding values for `CC1CN(C(=O)NC(C)(C)C)Cc2c(C(N)=O)c(-c3ccc(Cl)c(Cl)c3)nn21` (stereo not shown) [Compound A33, N^5-(tert-Butyl)-2-(3,4-dichlorophenyl)-7-methyl-6,7-dihydropyrazolo[1,5-a]pyrazine-3,5(4H)-dicarboxamide] are 0.01 to 10 nM and 0.01 to 10 nM.
For `CC(C)(C)NC(=O)N1Cc2c(C(N)=O)c(-c3ccc(F)c(Cl)c3)nn2C(CCF)C1` (single isomer, unassigned) [Compound A102, N^5-(tert-Butyl)-2-(3-chloro-4-fluorophenyl)-7-(2-fluoroethyl)-6,7-dihydropyrazolo[1,5-a]pyrazine-3,5(4H)-dicarboxamide] the same measures were 0.01 to 10 nM and 0.01 to 10 nM.
For the molecule `NC(=O)c1c(-c2ccc(Cl)c(Cl)c2)nn2c1CN(C(=O)NC1CC3(C1)CC3(F)F)CC2` (single isomer, unassigned) [Compound 325, 2-(3,4-Dichlorophenyl)-N^5-(1,1-difluorospiro[2.3]hexan-5-yl)-6,7-dihydropyrazolo[1,5-a]pyrazine-3,5(4H)-dicarboxamide], the IC50 on CK1δ (read-out: CK1δ IC50 range) and at CK1ε (read-out: CK1ε IC50 range) was 0.01 to 10 nM in each case.
With `C[C@H]1CN(C(=O)NC2CC(F)(F)C2)Cc2c(C(N)=O)c(-c3ccc(Cl)c(Cl)c3)nn21` [Compound A36, (S)-2-(3,4-Dichlorophenyl)-N^5-(3,3-difluorocyclobutyl)-7-methyl-6,7-dihydropyrazolo[1,5-c]pyrazine-3,5(4H)-dicarboxamide], the IC50 on CK1δ (read-out: CK1δ IC50 range) and at CK1ε (read-out: CK1ε IC50 range) was 0.01 to 10 nM in each case.
In the case of `C[C@@]12C[C@H]3C[C@@](Cl)(C1)C[C@](NC(=O)N1CCn4nc(-c5ccc(F)c(Cl)c5)c(C(N)=O)c4C1)(C3)C2` [Compound A69, 2-(3-Chloro-4-fluorophenyl)-N^5-((1S,3R,5S,7R)-3-chloro-5-methyladamantan-1-yl)-6,7-dihydropyrazolo[1,5-a]pyrazine-3,5(4H)-dicarboxamide], the IC50 at CK1δ (read-out: CK1δ IC50 range) and at CK1ε (read-out: CK1ε IC50 range) was 0.01 to 10 nM throughout.
For `CC(C)(NC(=O)N1CCn2nc(-c3ccc(F)c(Cl)c3)c(C(N)=O)c2C1)C(=O)N1CCCC1` [Compound 215, 2-(3-Chloro-4-fluorophenyl)-N^5-(2-methyl-1-oxo-1-(pyrrolidin-1-yl)propan-2-yl)-6,7-dihydropyrazolo [1,5-a]pyrazine-3,5(4H)-dicarboxamide], the IC50 fell in the range of 0.01 to 10 nM on CK1δ (read-out: CK1δ IC50 range) and 10 to 100 nM at CK1ε (read-out: CK1ε IC50 range).
With `NC(=O)c1c(-c2ccc(F)c(Cl)c2)nn2c1CN(C(=O)NC1CC(F)(F)C1)CC2` [Compound 291, 2-(3-Chloro-4-fluorophenyl)-N^5-(3,3-difluorocyclobutyl)-6,7-dihydropyrazolo[1,5-a]pyrazine-3,5(4H)-dicarboxamide], the IC50 at CK1δ (read-out: CK1δ) is 0.9 nM; at CK1δ (read-out: CK1δ IC50 range), 0.01 to 10 nM; on CK1ε (read-out: CK1ε), 1.4 nM; at CK1ε (read-out: CK1ε IC50 range), 0.01 to 10 nM.
Take `NC(=O)c1c(-c2cccc(F)c2)nn2c1CN(C(=O)Nc1ccccc1C(F)(F)F)CC2` [Compound 48, 2-(3-Fluorophenyl)-N^5-(2-(trifluoromethyl)phenyl)-6,7-dihydropyrazolo[1,5-a]pyrazine-3,5(4H)-dicarboxamide]: the IC50 on CK1δ (read-out: CK1δ IC50 range) fell in the range of 10 to 100 nM; on CK1ε (read-out: CK1ε IC50 range), 100 to 2000 nM.
For `CC1(NC(=O)N2Cc3c(C(N)=O)c(-c4ccc(F)c(Cl)c4)nn3[C@H]3COC[C@H]32)CC(F)(F)C1` [Compound 354, (5aS,8aR)-2-(3-Chloro-4-fluorophenyl)-N^5-(3,3-difluoro-1-methylcyclobutyl)-5a,6,8,8a-tetrahydrofuro[3,4-e]pyrazolo [1,5-a]pyrazine-3,5(4H)-dicarboxamide] the same measures were 0.01 to 10 nM and 0.01 to 10 nM.
For `CC1(NC(=O)N2Cc3c(C(N)=O)c(-c4ccc(F)c(Cl)c4)nn3C(CF)C2)CC(F)(F)C1` (stereo not shown) [Compound A10, 2-(3-Chloro-4-fluorophenyl)-N^5-(3,3-difluoro-1-methylcyclobutyl)-7-(fluoromethyl)-6,7-dihydropyrazolo[1,5-a]pyrazine-3,5(4H)-dicarboxamide], the IC50 on CK1δ (read-out: CK1δ IC50 range) and on CK1ε (read-out: CK1ε IC50 range) was 0.01 to 10 nM in each case.
